Among the data in PubChem BioAssay AID342 (DTP/NCI, 2004) are T/C values, retold here.

Where “and” joins values, the source holds several entries; their conditions need not be identical. Equal values may be shown once.

The test deals with Swiss mice, Sarcoma 180 sc, mean tumor weight T/C. The test is described as follows: NCI In Vivo Anticancer Drug Screen. Data for tumor model Sarcoma 180 (subcutaneous) in Swiss mice. The note with it: endpoint: mean tumor weight, higher = larger tumour. Put shortly:
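Transplantable tumors were established in mice, compound was given, then survival or tumor size was recorded. The treated value was divided by the vehicle-control value.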

Where [1] appears, read: dose: 18.0 mg/kg/injection, schedule: Q01DX007 (ip), vehicle: carboxymethylcellulose (CMC).

As a reminder, the T/C is the ratio of treated to control. Regarding `CS(=O)(=O)OCCCl`, the T/C is, setting by setting: (dose: 6.67 mg/kg/injection, schedule: Q#A X014 (ip), vehicle: carboxymethylcellulose (CMC)) 92 % of control; (dose: 13.35 mg/kg/injection, schedule: Q01DX007 (ip), vehicle: carboxymethylcellulose (CMC)) 117 % of control; (dose: 13.35 mg/kg/injection, schedule: Q#A X014 (ip), vehicle: carboxymethylcellulose (CMC)) 95 % of control; (dose: 26.7 mg/kg/injection, schedule: Q01DX007 (ip), vehicle: carboxymethylcellulose (CMC)) 106 % of control; (dose: 26.7 mg/kg/injection, schedule: Q#A X014 (ip), vehicle: carboxymethylcellulose (CMC)) 86 % of control; (dose: 53.4 mg/kg/injection, schedule: Q01DX007 (ip), vehicle: carboxymethylcellulose (CMC)) 100 % of control. Further, the T/C (dose: 106.8 mg/kg/injection, schedule: Q01DX007 (ip), vehicle: carboxymethylcellulose (CMC)) is 94 % of control.
For `COc1ccc2c(=O)oc3c(OC)cc(CCN(C)C)c4c(=O)oc1c2c34`, the T/C by setting is: (dose: 0.8 mg/kg/injection, schedule: Q01DX007 (ip), vehicle: water) 113 % of control; (dose: 1.6 mg/kg/injection, schedule: Q01DX007 (ip), vehicle: water) 77 % of control; (dose: 3.2 mg/kg/injection, schedule: Q01DX007 (ip), vehicle: water) 108 % of control; (dose: 6.3 mg/kg/injection, schedule: Q01DX007 (ip), vehicle: water) 86 % of control.
Consider `C1OC1C1CO1` (centres undefined), for which the T/C by setting is: (dose: 4.5 mg/kg/injection, schedule: Q01DX007 (ip), vehicle: carboxymethylcellulose (CMC)) 68 % of control; (dose: 4.63 mg/kg/injection, schedule: Q01DX007 (ip), vehicle: carboxymethylcellulose (CMC)) 99 % of control; (dose: 9.0 mg/kg/injection, schedule: Q01DX007 (ip), vehicle: carboxymethylcellulose (CMC)) 97 % of control; (dose: 9.25 mg/kg/injection, schedule: Q01DX007 (ip), vehicle: carboxymethylcellulose (CMC)) 74 % of control; (dose: 13.76 mg/kg/injection, schedule: Q01DX007 (ip), vehicle: carboxymethylcellulose (CMC)) 80 % of control; (dose: 17.2 mg/kg/injection, schedule: Q01DX007 (ip), vehicle: carboxymethylcellulose (CMC)) 107 % of control. Further, the T/C is, setting by setting: under setting [1], 53 % of control; (dose: 18.5 mg/kg/injection, schedule: Q01DX007 (ip), vehicle: carboxymethylcellulose (CMC)) 71 % of control; (dose: 22.93 mg/kg/injection, schedule: Q01DX007 (ip), vehicle: carboxymethylcellulose (CMC)) 82 % of control; (dose: 34.4 mg/kg/injection, schedule: Q01DX007 (ip), vehicle: carboxymethylcellulose (CMC)) 80 % of control.
Regarding `C[C@]12CC[C@H](O)CC1=CC[C@@H]1[C@@H]2[C@@H](O)C[C@@]2(C)[C@H]1CC[C@]2(C)O`, the T/C is 87 % of control (dose: 25.0 mg/kg/injection, schedule: Q#A X014 (sc), vehicle: steriod suspending solution); 113 % of control (dose: 100.0 mg/kg/injection, schedule: Q#A X014 (sc), vehicle: steriod suspending solution); 76 % of control (dose: 200.0 mg/kg/injection, schedule: Q#A X014 (sc), vehicle: steriod suspending solution).
Take `C/C=C(/C)C(=O)O[C@H]1CCN2CC=C(COC(=O)[C@@](O)([C@H](C)OC)C(C)(C)O)[C@H]12`: the T/C was 117 % of control (dose: 12.0 mg/kg/injection, schedule: Q01DX007 (ip), vehicle: carboxymethylcellulose (CMC)); 73 % of control under setting [1]; 48 % of control (dose: 26.6 mg/kg/injection, schedule: Q01DX007 (ip), vehicle: carboxymethylcellulose (CMC)); 40 % of control (dose: 40.0 mg/kg/injection, schedule: Q01DX007 (ip), vehicle: carboxymethylcellulose (CMC)).
Regarding `CC1=CC(O)C(O)C2(C)C1CC1OC(=O)C(O)C3C(C)C(O)C4(O)OCC13C42` (centres undefined), the T/C runs as follows: (dose: 5.0 mg/kg/injection, schedule: Q01DX007 (sc), vehicle: olive oil, sesame oil, peanut oil) 90 % of control; (dose: 10.0 mg/kg/injection, schedule: Q01DX007 (sc), vehicle: olive oil, sesame oil, peanut oil) 64 % of control; (dose: 20.0 mg/kg/injection, schedule: Q01DX007 (sc), vehicle: olive oil, sesame oil, peanut oil) 96 % of control; (dose: 40.0 mg/kg/injection, schedule: Q01DX007 (sc), vehicle: olive oil, sesame oil, peanut oil) 85 % of control and 86 % of control; (dose: 135.0 mg/kg/injection, schedule: Q01DX007 (sc), vehicle: olive oil, sesame oil, peanut oil) 83 % of control.
With `CCC(=O)NC`, the T/C (dose: 1000.0 mg/kg/injection, schedule: Q01DX007 (ip), vehicle: other) is 41 % of control and 63 % of control; the T/C (dose: 1250.0 mg/kg/injection, schedule: Q01DX007 (ip), vehicle: other) is 14 % of control and 33 % of control.
As for `O=C(Nc1ccc(C2=NCCN2)cc1)c1cccc(C(=O)Nc2ccc(C3=NCCN3)cc2)c1`, the T/C by setting is: (dose: 1.2 mg/kg/injection, schedule: Q01DX007 (ip), vehicle: carboxymethylcellulose (CMC)) 167 % of control; (dose: 4.7 mg/kg/injection, schedule: Q01DX007 (ip), vehicle: carboxymethylcellulose (CMC)) 109 % of control; (dose: 9.4 mg/kg/injection, schedule: Q01DX007 (ip), vehicle: carboxymethylcellulose (CMC)) 117 % of control; (dose: 60.0 mg/kg/injection, schedule: Q01DX007 (ip), vehicle: carboxymethylcellulose (CMC)) 163 % of control; (dose: 120.0 mg/kg/injection, schedule: Q01DX007 (ip), vehicle: carboxymethylcellulose (CMC)) 98 % of control; (dose: 240.0 mg/kg/injection, schedule: Q01DX007 (ip), vehicle: carboxymethylcellulose (CMC)) 79 % of control.
As to `Cc1ncc(CO)c(CNC(=O)N(C)N=O)c1O`, where the note is “dose: 62.0 mg/kg/injection, schedule: Q01DX007 (ip), vehicle: carboxymethylcellulose (CMC)”, the T/C is 60 % of control.
Regarding `Cc1cc(N=Nc2ccc(Sc3ccc(N=Nc4ccc(O)c(C(=O)O)c4)cc3)cc2)c(N)c(N=Nc2ccc(C(=O)O)cc2)c1N`, the T/C is 114 % of control (dose: 6.25 mg/kg/injection, schedule: Q01DX007 (ip), vehicle: water); 106 % of control (dose: 12.5 mg/kg/injection, schedule: Q01DX007 (ip), vehicle: water); 83 % of control (dose: 25.0 mg/kg/injection, schedule: Q01DX007 (ip), vehicle: water).
In the case of `CC(C)C(=O)OCC1OC(n2cnc3c(=S)nc[nH]c32)C(OC(=O)C(C)C)C1OC(=O)C(C)C` (centres undefined), the T/C is, setting by setting: (dose: 17.0 mg/kg/injection, schedule: Q01DX007 (ip), vehicle: steriod suspending solution) 80 % of control; (dose: 24.0 mg/kg/injection, schedule: Q01DX007 (ip), vehicle: carboxymethylcellulose (CMC)) 76 % of control; (dose: 25.0 mg/kg/injection, schedule: Q01DX007 (ip), vehicle: steriod suspending solution) 61 % of control; (dose: 37.0 mg/kg/injection, schedule: Q01DX007 (ip), vehicle: carboxymethylcellulose (CMC)) 38 % of control; (dose: 37.0 mg/kg/injection, schedule: Q01DX007 (ip), vehicle: steriod suspending solution) 66 % of control; (dose: 55.0 mg/kg/injection, schedule: Q01DX007 (ip), vehicle: carboxymethylcellulose (CMC)) 31 % of control and 47 % of control. Besides, the T/C is, setting by setting: (dose: 55.0 mg/kg/injection, schedule: Q01DX007 (ip), vehicle: steriod suspending solution) 27 % of control and 37 % of control; (dose: 84.0 mg/kg/injection, schedule: Q01DX007 (ip), vehicle: carboxymethylcellulose (CMC)) 25 % of control and 31 % of control; (dose: 84.0 mg/kg/injection, schedule: Q01DX007 (ip), vehicle: steriod suspending solution) 52 % of control; (dose: 125.0 mg/kg/injection, schedule: Q01DX007 (ip), vehicle: carboxymethylcellulose (CMC)) 8 % of control; (dose: 125.0 mg/kg/injection, schedule: Q01DX007 (ip), vehicle: steriod suspending solution) 26 % of control; (dose: 188.0 mg/kg/injection, schedule: Q01DX007 (ip), vehicle: steriod suspending solution) 14 % of control and 17 % of control. Further, the T/C by setting is: (dose: 282.0 mg/kg/injection, schedule: Q01DX007 (ip), vehicle: steriod suspending solution) 16 % of control; (dose: 423.0 mg/kg/injection, schedule: Q01DX007 (ip), vehicle: steriod suspending solution) 16 % of control.
